Experimental data: US7491819B1 (priority 2004, dated 2009)

How the values were obtained:
HIV-1 303B = assay: microbe, parasite or virus in culture; assay type: cell-based; conditions: for Combination Indices at 50% HIV Inhibition (Confidence Interval) / Combination Indices at 75% HIV Inhibition (Confidence Interval) / Combination Indices at 90% HIV Inhibition (Confidence Interval): in combination with Example 19, 95% CI in parenthesis
Procedure: Virus and cell lines. The T-cell line, MT-2, was obtained through the AIDS Research and Reference Reagent Program. MT-2 cells were sub-cultured twice a week in RPMI 1640 medium supplemented with 10% fetal bovine serum, 2 mM L-glutamine, and 10 mM HEPES buffer pH 7.5. The HIV-1303B virus is a molecular clone derived from the NL4-3 strain of HIV-1 that was obtained from the NIH AIDS Research and Reference Reagent Program. For combinations with enfuvirtide, the NL36G virus was used. […] Virus stocks were made by transfecting 293T cells with a proviral DNA clone using LipofectAMINE PLUS (Invitrogen), according to the manufacturer's instructions. Three days post-transfection, virus was harvested and passaged once in MT-2 cells before titration in MT-2 cells.
Chemicals. Example 19, atazanavir, didanosine, stavudine, efavirenz, and enfuvirtide (T-20) were synthesized by Bristol-Myers Squibb using published or known reactions. […] Tenofovir was tested as tenofovir disopoxil fumarate. Zidovudine and zalcitabine were purchased from Sigma, and emtricitabine from Moravek Biochemicals.
Drug Susceptibility and Cytotoxicity Assays. For drug susceptibility assays, MT-2 cells were infected with HIV-1 303B (or NL36G), at an MOI of 0.001, and seeded into 96-well microtiter plates (2.5×10^5 cells/ml) containing serial dilutions of test compounds. […] Each drug ratio consisted of an array of 3-fold serial dilutions, and was performed with eight or more replicas on separate multi-well plates. HIV infected cells were incubated at 37° C. in 5% CO2, and on day five post-infection, the extent of virus replication was measured by determining cell viability using the CellTiter 96 Aqueous Non-Radioactive Cell Proliferation Assay (Promega). […] Cytotoxicity assays were performed in parallel with the combination experiments. Here, uninfected cells were exposed to the same drug combinations, and assayed after five days for cell viability using the MTS assay.
Analysis of Drug Combination Effects. For determination of combination index (CI) values, drugs were diluted in a fixed ratio and multiple ratios were analyzed. The drug serial dilutions spanned a range of concentrations near the EC50 value of each compound, so that equivalent antiviral activities could be compared. The normalized responses from each therapy are fit to the four-parameter logistic model with a common minimum and maximum across all therapies. Conceptually, this equation can be written as
In this equation, Fa stands for “fraction affected,” and represents the fraction of the viral load that has been inactivated. […] The EC50, represented by the Ci in the above equation, is the drug concentration that is expected to reduce the amount of virus by 50%, and the Bi are the parameters that reflects the slope of the concentration-response curve. For this assay, A is the bottom plateau common to all curves, D is the common top plateau, Bj is the “slope” parameter for the jth therapy, and Cj is the concentration that produces an effect equal to the average of A and D for the jth therapy. Therapies 1 and 2 correspond to mono therapies 1 and 2, respectively. Therapies 3, 4, and 5 correspond to the three combination therapies. EC50 values for each drug were determined from the single drug experiments, using the above equation. The equation was fit using a nonlinear regression routine (Proc Nlin) in PC SAS version 8.2 (SAS Institute Inc.).
To assess antiviral effects of different drug combination treatments, combination indices (CIs) were calculated according to Chou and Rideout. The combination index was computed as
In this equation [Dm]1 and [Dm]2 are the concentrations of drugs that would individually produce a specific level of effect, while [D]1 and [D]2 are the concentrations of drugs in combination that would produce the same level of effect.
Theoretically, additivity is implied if the CI is equal to one, synergy if the CI is less than one, and antagonism if the CI is greater than one.

HIV-integrase = biological target: T1, HIV-integrase (Human immunodeficiency virus type 1 group M subtype B, UniProt P12497); assay: HIV-Integrase Inhibition Activity (SPA bead strand-transfer assay); assay type: biochemical; conditions: Table 1; read-out: Activity (HIV-integrase inhibition, IC50 class)
T1 construct: Recombinant integrase (0.26 ng) was incubated with the beads
Summary of the method: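 Biotin-labelled substrate DNA (5 pmole) bound to streptavidin SPA beads, preloaded with recombinant integrase (0.26 ng) for 90 min at 37° C, then washed. Inhibitors and 0.1 fmol P33-labelled target DNA added; reaction stopped with 10 mM EDTA. Integration read as scintillation CPM.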

[1] = EC50 ratio Example 19:comparator 1:1
[2] = EC50 ratio Example 19:comparator 1:2.5
[3] = EC50 ratio Example 19:comparator 2.5:1

SMILES	IC50 (HIV-integrase) [nM]	also measured
CC(C)c1nc(CN(C)C(=O)N[C@H](C(=O)N[C@@H](Cc2ccccc2)C[C@H](O)[C@H](Cc2ccccc2)NC(=O)OCc2cncs2)C(C)C)cs1 [Ritonavir, ritonavir]		EC50 (HIV-1 303B; Human immunodeficiency virus 1, MT2, 120 h): 48 nM; overall antiviral effect of the two-drug combination with Example 19 (in words) (HIV-1 303B; classification from combination indices and confidence intervals): additive relationship with Example 19 cannot be ruled out; Combination Indices at 50% HIV Inhibition (Confidence Interval) (HIV-1 303B; [1]): 0.80 (0.67, 0.93); Combination Indices at 75% HIV Inhibition (Confidence Interval) (HIV-1 303B; [1]): 0.57 (0.41, 0.73); Combination Indices at 90% HIV Inhibition (Confidence Interval) (HIV-1 303B; [1]): 0.44 (0.23, 0.65); Combination Indices at 50% HIV Inhibition (Confidence Interval) (HIV-1 303B; [2]): 0.73 (0.59, 0.88); Combination Indices at 75% HIV Inhibition (Confidence Interval) (HIV-1 303B; [2]): 0.64 (0.48, 0.80); Combination Indices at 90% HIV Inhibition (Confidence Interval) (HIV-1 303B; [2]): 0.61 (0.38, 0.85); Combination Indices at 50% HIV Inhibition (Confidence Interval) (HIV-1 303B; [3]): 0.92 (0.72, 1.11); Combination Indices at 75% HIV Inhibition (Confidence Interval) (HIV-1 303B; [3]): 0.72 (0.50, 0.93); Combination Indices at 90% HIV Inhibition (Confidence Interval) (HIV-1 303B; [3]): 0.59 (0.32, 0.87)
CS(=O)(=O)CCC1OCCn2c1nc(C(=O)NCc1ccc(F)cc1)c(O)c2=O (stereo not drawn) [Example 209, Pyrimido[2,1-c][1,4]oxazine-2-carboxamide, N-[(4-fluorophenyl)methyl]-4,6,7,9-tetrahydro-3-hydroxy-9-[2-(methylsulfonyl)ethyl]-4-oxo-]	2 to 100	
CN(C)CCNC(=O)c1ncn(-c2cc(F)ccc2CNC(=O)c2nc3n(c(=O)c2O)CCOC3(C)C)n1 [Example 70, Pyrimido[2,1-c][1,4]oxazine-2-carboxamide, N-[[2-[3-[[[2-(dimethylamino)ethyl]amino]carbonyl]-1H-1,2,4-triazol-1-yl]-4-fluorophenyl]methyl]-4,6,7,9-tetrahydro-3-hydroxy-9,9-dimethyl-4-oxo-]	2 to 100	
CC1(C)OCCn2c1nc(C(=O)NCc1ccc(F)cc1-c1ccn[nH]1)c(O)c2=O [Example 85, Pyrimido[2,1-c][1,4]oxazine-2-carboxamide, N-[[4-fluoro-2-(1H-pyrazol-5-yl)phenyl]methyl]-4,6,7,9-tetrahydro-3-hydroxy-9,9-dimethyl-4-oxo-]	2 to 100	
CC1(C)OCCn2c1nc(C(=O)NCc1ccccc1N1CCCCC1)c(O)c2=O [Example 254, Pyrimido[2,1-c][1,4]oxazine-2-carboxamide, 4,6,7,9-tetrahydro-3-hydroxy-9,9-dimethyl-4-oxo-N-[[2-(1-piperidinyl)phenyl]methyl]-]	2 to 100	
C/C(N)=C/C(=O)c1cc(F)ccc1CNC(=O)c1nc2n(c(=O)c1O)CCOC2(C)C [Example 211, Pyrimido[2,1-c][1,4]oxazine-2-carboxamide, N-[[2-[(2Z)-3-amino-1-oxo-2-butenyl]-4-fluorophenyl]methyl]-4,6,7,9-tetrahydro-3-hydroxy-9,9-dimethyl-4-oxo-]	2 to 100	
CC1(C)OCCn2c1nc(C(=O)NCc1ccc(F)cc1-n1cnc(C(=O)N3CCOCC3)n1)c(O)c2=O [Example 62, Pyrimido[2,1-c][1,4]oxazine-2-carboxamide, N-[[4-fluoro-2-[3-(4-morpholinylcarbonyl)-1H-1,2,4-triazol-1-yl]phenyl]methyl]-4,6,7,9-tetrahydro-3-hydroxy-9,9-dimethyl-4-oxo-]	2 to 100	
Cn1nnc(-c2cc(F)ccc2CNC(=O)c2nc3n(c(=O)c2O)CCOC3(C)C)n1 [Example 106, Pyrimido[2,1-c][1,4]oxazine-2-carboxamide, N-[[4-fluoro-2-(2-methyl-2H-tetrazol-5-yl)phenyl]methyl]-4,6,7,9-tetrahydro-3-hydroxy-9,9-dimethyl-4-oxo-]	2 to 100	
CC1(C)OCCn2c1nc(C(=O)NCc1ccccc1-c1ccc(N3CCOCC3)nc1)c(O)c2=O [Example 156, Pyrimido[2,1-c][1,4]oxazine-2-carboxamide, 4,6,7,9-tetrahydro-3-hydroxy-9,9-dimethyl-N-[[2-[6-(4-morpholinyl)-3-pyridinyl]phenyl]methyl]-4-oxo-]	2 to 100	
CCC1OCCn2c1nc(C(=O)NCc1ccc(C)c(C)c1)c(O)c2=O (stereo not drawn) [Example 13, Pyrimido[2,1-c][1,4]oxazine-2-carboxamide, N-[(3,4-dimethylphenyl)methyl]-9-ethyl-4,6,7,9-tetrahydro-3-hydroxy-4-oxo-]	2 to 100	
CC(C)C1OCCn2c1nc(C(=O)NCc1ccc(F)cc1)c(O)c2=O (stereo not drawn) [Example 17, Pyrimido[2,1-c][1,4]oxazine-2-carboxamide, N-[(4-fluorophenyl)methyl]-4,6,7,9-tetrahydro-3-hydroxy-9-(1-methylethyl)-4-oxo-]	2 to 100	
CC1(C)OCCn2c1nc(C(=O)NCc1cccc3c1OCCCO3)c(O)c2=O [Example 268, Pyrimido[2,1-c][1,4]oxazine-2-carboxamide, N-[(3,4-dihydro-2H-1,5-benzodioxepin-6-yl)methyl]-4,6,7,9-tetrahydro-3-hydroxy-9,9-dimethyl-4-oxo-]	2 to 100	
CC1(C)OCCn2c1nc(C(=O)NCc1ccccc1N1C(=O)C=CC1=O)c(O)c2=O [Example 137, N-(2-(2,5-Dioxo-2H-pyrrol-1(5H)-yl)benzyl)-3-hydroxy-9,9-dimethyl-4-oxo-4,6,7,9-tetrahydropyrimido[2,1-c][1,4]oxazine-2-carboxamide]	2 to 100	
CC1(C)OCCn2c1nc(C(=O)NCc1ccc(F)cc1-n1nccn1)c(O)c2=O [Example 57, Pyrimido[2,1-c][1,4]oxazine-2-carboxamide, N-[[4-fluoro-2-(2H-1,2,3-triazol-2-yl)phenyl]methyl]-4,6,7,9-tetrahydro-3-hydroxy-9,9-dimethyl-4-oxo-]	2 to 100	
CC1(C)OCCn2c1nc(C(=O)NCc1ccccc1)c(O)c2=O [Example 219, Pyrimido[2,1-c][1,4]oxazine-2-carboxamide, 4,6,7,9-tetrahydro-3-hydroxy-9,9-dimethyl-4-oxo-N-(phenylmethyl)-]	2 to 100	
CC(=O)Nc1cc(F)ccc1CNC(=O)c1nc2n(c(=O)c1O)CCOC2(C)C [Example 135, Pyrimido[2,1-c][1,4]oxazine-2-carboxamide, N-[[2-(acetylamino)-4-fluorophenyl]methyl]-4,6,7,9-tetrahydro-3-hydroxy-9,9-dimethyl-4-oxo-]	2 to 100	
CC1(C)OCCn2c1nc(C(=O)NCc1ccccc1-c1ccc(N3CCOCC3)cc1)c(O)c2=O [Example 168, Pyrimido[2,1-c][1,4]oxazine-2-carboxamide, 4,6,7,9-tetrahydro-3-hydroxy-9,9-dimethyl-N-[[4′-(4-morpholinyl)[1,1′-biphenyl]-2-yl]methyl]-4-oxo-]	2 to 100	
CC1(C)OCCn2c1nc(C(=O)NCc1cc(Cl)ccc1Cl)c(O)c2=O [Example 228, Pyrimido[2,1-c][1,4]oxazine-2-carboxamide, N-[(2,5-dichlorophenyl)methyl]-4,6,7,9-tetrahydro-3-hydroxy-9,9-dimethyl-4-oxo-]	2 to 100	
COc1cccc(CNC(=O)c2nc3n(c(=O)c2O)CCOC3(C)C)c1OC [Example 229, Pyrimido[2,1-c][1,4]oxazine-2-carboxamide, N-[(2,3-dimethoxyphenyl)methyl]-4,6,7,9-tetrahydro-3-hydroxy-9,9-dimethyl-4-oxo-]	2 to 100	
Cc1cc(CNC(=O)c2nc3n(c(=O)c2O)CCOC3(C)C)ccc1F [Example 20, Pyrimido[2,1-c][1,4]oxazine-2-carboxamide, N-[(4-fluoro-3-methylphenyl)methyl]-4,6,7,9-tetrahydro-3-hydroxy-9,9-dimethyl-4-oxo-]	2 to 100	
